Columns and labels:
Hela cells [1] = assay: Cy3-labeled rAAV binding to Hela cells at 4° C., heparin competition; format: cell-based, human; details: free heparin at the time of infection
Procedure: FIGS. 18A–D. Cy3-labeled rAAV infection in Hela cells. Hela cells were infected with Cy3-labeled AV.GFP3ori at an MOI of 500 particles/cells for 90 minutes at 4° C. in the absence of serum. Cells were then washed and either directly fixed in 2% paraformaldehyde for 10 minutes or incubated at 37° C. for an additional 60 or 120 minutes prior to fixation. Prior to viral infections, cells were incubated for 30 minutes in 1 μM 5-chloromethylfluorescein diacetate (Cell Tracker™ Green CMFDA, Molecular Probe) to allow for visualization of cells and labeled virus in dual fluorescent channel images. Representative confocal image of cells infected for 90 minutes at 4° C. followed by a 60 and 120 minute incubation at 37° C. are shown for both Cy3 and dual Cy3/FITC channels (FIG. 18A). The nuclei in dual channel images are marked by Nu. The confocal images shown were merged from three 0.5 μm layers taken within the central region of the cell. FIG. 18B depicts non-confocal images with Nomarski and Cy3 channels for cells infected for 90 minutes at 4° C. […]
To assess endocytosis and nuclear trafficking of AAV following treatment with various agents which may modulate these processes, fluorescently labeled virus was prepared. […] Several experimental conditions evaluated crosslinking reactions with dye:rAAV particle ratios of 0.2, 1, 5, 25, 100, and 200. […]

Hela cells [2] = details: previously shown; cited from earlier work

In the case of heparin, the “viral binding of Cy3-labeled rAAV” value (Hela cells [1]) is listed as “inhibited in a dose-dependent fashion” and the “rAAV transduction in Hela cells” value (Hela cells [2]) is listed as “inhibit most of rAAV transduction”.
